Measured values taken from patent US4045563A, “Substituted 2-[pyridylalkylenesulfinyl]-benzimidazoles with gastric acid secretion inhibiting effects” (AB Hassle, priority 1975, dated 1977).

The molecules below were run on gastric acid secretion (assay: Inhibition of pentagastrin-induced gastric acid secretion in anesthetized dogs (modified perfusion technique, intraduodenal test compound)). Conditions: 1 mg per kg body weight, dog, pentagastrin-stimulated.
Type: in vivo
Description: To test the gastric acid secretion activity, a modified perfusion technique was performed using dogs as test animals. An anesthetized dog was fitted with one tube going through the esophagus to the stomach for instillation of fluid, and a second tube extending through the duodenum by way of the ligated pylorus for fluid drainage. Every 15 minutes, 5 ml/kg body weight of a saline solution was introduced into the test animal, and drained samples collected and titrated to pH 7.0 with 0.04N NaOH using a radiometer automatic titrator to calculate the acid output.
Gastric acid secretion was induced by pentagastrin by administering 1-2 μg/kg per hour, giving a submaximal secretory response. Test compounds in a 0.5% Methocel (methyl cellulose) suspension were introduced into the duodenum close to the ligation at least two hours following onset of stimulation, when the secretion had reached a steady level for three consecutive 15 minute periods.
The following gastric acid inhibiting effect data were obtained for a number of compounds tested according to the method described.

Structure (SMILES) | inhibited gastric acid secretion
[O-][S+](Cc1ccccn1)c1nc2ccccc2[nH]1 (stereo not shown) [Example 1, 2-[2-pyridylmethylsulfinyl]-benzimidazole] | 90%

Same assay, conditions: Canis lupus familiaris, dose 1 mg/kg, dog, pentagastrin-stimulated

Structure (SMILES) | inhibition in vivo at 1 mg/kg
CC(c1ccccn1)[S+]([O-])c1nc2ccccc2[nH]1 (stereo not shown) [Example 16] | 37%
Cc1ccc2[nH]c([S+]([O-])Cc3ccccn3)nc2c1 (stereo not shown) [Example 21] | 50%

Same assay, conditions: Canis lupus familiaris, dose 2 mg/kg, dog, pentagastrin-stimulated

Structure (SMILES) | inhibition in vivo at 2 mg/kg
CCC(c1ccccn1)[S+]([O-])c1nc2ccccc2[nH]1 (stereo not shown) [Example 28] | 65%

Same assay, conditions: Canis lupus familiaris, dose 5 mg/kg, dog, pentagastrin-stimulated

Structure (SMILES) | inhibition in vivo at 5 mg/kg
CCc1ccc(C[S+]([O-])c2nc3cc(C)ccc3[nH]2)nc1 (stereo not shown) [Example 44] | 95%
Cc1cc(C)c2nc([S+]([O-])Cc3ccccn3)[nH]c2c1 (stereo not shown) [Example 2] | 94%
CCc1ccc2[nH]c([S+]([O-])Cc3ccccn3)nc2c1 (stereo not shown) [Example 3] | 50%
CCc1ccc2[nH]c([S+]([O-])C(C)c3ccccn3)nc2c1 (stereo not shown) [Example 30] | 60%
CC(c1ccccn1)[S+]([O-])c1nc2ccccc2[nH]1 (stereo not shown) [Example 16] | 96%
Cc1cccnc1C[S+]([O-])c1nc2ccccc2[nH]1 (stereo not shown) [Example 43] | > 75%
CCC(c1ccccn1)[S+]([O-])c1nc2ccccc2[nH]1 (stereo not shown) [Example 28] | 80%
CCOC(=O)c1ccc2[nH]c([S+]([O-])Cc3ccccn3)nc2c1 (stereo not shown) [Example 9] | 8%
Cc1ccc2[nH]c([S+]([O-])Cc3ccccn3)nc2c1 (stereo not shown) [Example 21] | 95%
CCCc1ccc2[nH]c([S+]([O-])Cc3ccccn3)nc2c1 (stereo not shown) [Example 25] | 15%
Cc1ccc(C[S+]([O-])c2nc3cc(C)ccc3[nH]2)nc1 (stereo not shown) [Example 26] | > 75%
Cc1ccnc(C[S+]([O-])c2nc3cc(C)ccc3[nH]2)c1 (stereo not shown) [Example 42] | > 75%
CCc1ccc(C[S+]([O-])c2nc3ccccc3[nH]2)nc1 (stereo not shown) [Example 45] | 90%
[O-][S+](Cc1ccccn1)c1nc2cc(Cl)ccc2[nH]1 (stereo not shown) [Example 22] | 35%
[O-][S+](Cc1ccccn1)c1nc2c(Cl)cccc2[nH]1 (stereo not shown) [Example 53] | 30%
Cc1cc2nc([S+]([O-])C(C)c3ccccn3)[nH]c2cc1C (stereo not shown) [Example 55] | 30%

Same assay, conditions: Canis lupus familiaris, dose 10 mg/kg, dog, pentagastrin-stimulated

Structure (SMILES) | inhibition in vivo at 10 mg/kg
Cc1cc(Cl)cc2[nH]c([S+]([O-])Cc3ccccn3)nc12 (stereo not shown) [Example 4] | 41%
CC(C)c1ccc2[nH]c([S+]([O-])Cc3ccccn3)nc2c1 (stereo not shown) [Example 23] | 80%
